Source: patent US20220062240A1, “METHODS OF TREATING CANCER USING A CLK INHIBITOR” (BioSplice Therapeutics, Inc., priority 2018, published 2022)
Read-outs that look alike come from different tables or passages of the source.

Legend:
CLK2 = molecular target: T1, CLK2 (Homo sapiens, UniProt P49760); experiment: CLK2 kinase activity assay (Z-lyte, Ser/Thr 6 peptide); assay type: biochemical; conditions: recombinant CLK2 kinase, ATP 60 μM; read-out: EC50
T1 construct: purchased Thermo Fisher (Life Technologies), Z'-LYTE Kinase Assay Kits
Method: All reactions were performed in duplicate.

BT-549 = experiment: CellTiter-Glo Viability Assay, breast cancer; assay type: cell-based; conditions: Homo sapiens, 96 h; BT-549, breast cancer, four days; read-out: EC50
CAMA1 = experiment: CellTiter-Glo Viability Assay, breast cancer; assay type: cell-based; conditions: Homo sapiens, CAMA-1, 96 h; CAMA1, breast cancer, four days; read-out: EC50
DU4475 = experiment: CellTiter-Glo Viability Assay, breast cancer; assay type: cell-based; conditions: Homo sapiens, DU-4475, 96 h; DU4475, breast cancer, four days; read-out: EC50
HCC1599 = experiment: CellTiter-Glo Viability Assay, breast cancer; assay type: cell-based; conditions: Homo sapiens, 96 h; HCC1599, breast cancer, four days; read-out: EC50
MCF7 = experiment: CellTiter-Glo Viability Assay, breast cancer; assay type: cell-based; conditions: Homo sapiens, 96 h; MCF7, breast cancer, four days; read-out: EC50
MDA-MB-231-Luc = experiment: CellTiter-Glo Viability Assay, breast cancer; assay type: cell-based; conditions: Homo sapiens, 96 h; MDA-MB-231-Luc, breast cancer, four days; read-out: EC50
T47D = experiment: CellTiter-Glo Viability Assay, breast cancer; assay type: cell-based; conditions: Homo sapiens, 96 h, breast cancer, four days, read-out: EC50
ZR-75-1 = experiment: CellTiter-Glo Viability Assay, breast cancer; assay type: cell-based; conditions: Homo sapiens, 96 h; ZR-75-1, breast cancer, four days; read-out: EC50
all 50 cell lines = experiment: CellTiter-Glo Viability Assay, average across all cell lines; assay type: cell-based; conditions: Homo sapiens; across all 50 cell lines; read-out: average EC50 for inhibition of cancer cell proliferation
In short: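 Cancer cell lines of several tumour types plated at 300-3,000 cells/well and exposed to compound in duplicate for four days at 37° C, 5% CO2, with DMSO-treated controls. Viability read by CellTiter-Glo luminescence (ATP content); EC50 derived from dose-response curves.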

[1] = tested on: colorectal cancer (6 cell lines); experiment: CellTiter-Glo Viability Assay, colorectal cancer; assay type: cell-based; conditions: Homo sapiens, inhibition of cancer cell proliferation
[2] = tested on: haematopoietic & lymphoid tumors (13 cell lines); experiment: CellTiter-Glo Viability Assay, haematopoietic & lymphoid tumors; assay type: cell-based; conditions: Homo sapiens, inhibition of cancer cell proliferation
[3] = tested on: liver cancer (3 cell lines); experiment: CellTiter-Glo Viability Assay, liver cancer; assay type: cell-based; conditions: Homo sapiens, inhibition of cancer cell proliferation
[4] = tested on: lung cancer (4 cell lines); experiment: CellTiter-Glo Viability Assay, lung cancer; assay type: cell-based; conditions: Homo sapiens, inhibition of cancer cell proliferation
[5] = tested on: ovarian cancer (4 cell lines); experiment: CellTiter-Glo Viability Assay, ovarian cancer; assay type: cell-based; conditions: Homo sapiens, inhibition of cancer cell proliferation
[6] = tested on: pancreatic cancer (8 cell lines); experiment: CellTiter-Glo Viability Assay, pancreatic cancer; assay type: cell-based; conditions: Homo sapiens, inhibition of cancer cell proliferation
[7] = tested on: prostate cancer (5 cell lines); experiment: CellTiter-Glo Viability Assay, prostate cancer; assay type: cell-based; conditions: Homo sapiens
CLK3 = CLK3 (Homo sapiens, UniProt P49761); experiment: CLK3 kinase activity assay (Z-lyte, Ser/Thr 18 peptide)
[8] = HCT-116, HCT116 cell line, read-out: Colorectal cancer, EC50 (μM) HCT116
[9] = HT-29, HT29 cell line, read-out: Colorectal cancer, EC50 (μM) HT29
[10] = SW-620, SW620 cell line, read-out: Colorectal cancer, EC50 (μM) SW620
[11] = DLD-1 cell line, read-out: Colorectal cancer, EC50 (μM) DLD-1
[12] = SW48 cell line, read-out: Colorectal cancer, EC50 (μM) SW48
[13] = SW480 cell line, read-out: Colorectal cancer, EC50 (μM) SW480
[14] = DND41, DND-41 cell line, read-out: Haematopoietic & Lymphoid tumors, EC50 (μM) DND-41
[15] = MV4-11, MV-4-11 cell line, read-out: Haematopoietic & Lymphoid tumors, EC50 (μM) MV-4-11
[16] = Rec1, REC-1 cell line, read-out: Haematopoietic & Lymphoid tumors, EC50 (μM) REC-1
[17] = SU-DHL-4, SUDHL4 cell line, read-out: Haematopoietic & Lymphoid tumors, EC50 (μM) SUDHL4
[18] = HL-60 cell line, read-out: Haematopoietic & Lymphoid tumors, EC50 (μM) HL-60
[19] = JM1 cell line, read-out: Haematopoietic & Lymphoid tumors, EC50 (μM) JM1
[20] = JURKAT, Clone E6-1 cell line, read-out: Haematopoietic & Lymphoid tumors, EC50 (μM) JURKAT, Clone E6-1
[21] = JeKo-1 cell line, read-out: Haematopoietic & Lymphoid tumors, EC50 (μM) JeKo-1
[22] = KASUMI-1 cell line, read-out: Haematopoietic & Lymphoid tumors, EC50 (μM) KASUMI-1
[23] = Loucy cell line, read-out: Haematopoietic & Lymphoid tumors, EC50 (μM) Loucy
[24] = MOLT-4 cell line, read-out: Haematopoietic & Lymphoid tumors, EC50 (μM) MOLT-4
[25] = TF-1 cell line, read-out: Haematopoietic & Lymphoid tumors, EC50 (μM) TF-1
[26] = TOLEDO cell line, read-out: Haematopoietic & Lymphoid tumors, EC50 (μM) TOLEDO
[27] = SNU-398, SNU398 cell line, read-out: Liver cancer, EC50 SNU398
[28] = HEPG2 cell line, read-out: Liver cancer, EC50 HEPG2
[29] = PLC/PRF/5 cell line, read-out: Liver cancer, EC50 PLC/PRF/5
[30] = A-427, A427 cell line, read-out: Lung cancer, EC50 (μM) A427
[31] = HCC78, HCC-78 cell line, read-out: Lung cancer, EC50 (μM) HCC-78
[32] = NCI-H460 cell line, read-out: Lung cancer, EC50 (μM) NCI-H460
[33] = NCI-H522 cell line, read-out: Lung cancer, EC50 (μM) NCI-H522
[34] = PA-1, PA1 cell line, read-out: Ovarian cancer, EC50 (μM) PA1
[35] = TOV112D, TOV-112D cell line, read-out: Ovarian cancer, EC50 (μM) TOV-112D
[36] = OV-90 cell line, read-out: Ovarian cancer, EC50 (μM) OV-90
[37] = OVCAR-3 cell line, read-out: Ovarian cancer, EC50 (μM) OVCAR-3
[38] = BXPC-3, BxPC3 cell line, read-out: Pancreatic cancer, EC50 BxPC3
[39] = CAPAN-1, Capan1 cell line, read-out: Pancreatic cancer, EC50 Capan1
[40] = Capan-2, Capan2 cell line, read-out: Pancreatic cancer, EC50 Capan2
[41] = MIA PaCa-2 cell line, read-out: Pancreatic cancer, EC50 MIA PaCa-2
[42] = PANC 05.04 cell line, read-out: Pancreatic cancer, EC50 PANC 05.04
[43] = PANC-1 cell line, read-out: Pancreatic cancer, EC50 PANC-1
[44] = UPAFII cell line, read-out: Pancreatic cancer, EC50 UPAFII
[45] = DU-145, read-out: Prostate cancer EC50 Du-145
[46] = PC-3, PC3 cell line, inhibition of cancer cell proliferation, read-out: Prostate cancer EC50 PC3
[47] = 22Rv1 cell line, inhibition of cancer cell proliferation, read-out: Prostate cancer EC50 22Rv1
[48] = LNCap clone FGC cell line, inhibition of cancer cell proliferation, read-out: Prostate cancer EC50 LNCap clone FGC
[49] = VCaP (Sigma) cell line, inhibition of cancer cell proliferation, read-out: Prostate cancer EC50 VCaP (Sigma)

Sequence of CLK3 (P49761 whole entry): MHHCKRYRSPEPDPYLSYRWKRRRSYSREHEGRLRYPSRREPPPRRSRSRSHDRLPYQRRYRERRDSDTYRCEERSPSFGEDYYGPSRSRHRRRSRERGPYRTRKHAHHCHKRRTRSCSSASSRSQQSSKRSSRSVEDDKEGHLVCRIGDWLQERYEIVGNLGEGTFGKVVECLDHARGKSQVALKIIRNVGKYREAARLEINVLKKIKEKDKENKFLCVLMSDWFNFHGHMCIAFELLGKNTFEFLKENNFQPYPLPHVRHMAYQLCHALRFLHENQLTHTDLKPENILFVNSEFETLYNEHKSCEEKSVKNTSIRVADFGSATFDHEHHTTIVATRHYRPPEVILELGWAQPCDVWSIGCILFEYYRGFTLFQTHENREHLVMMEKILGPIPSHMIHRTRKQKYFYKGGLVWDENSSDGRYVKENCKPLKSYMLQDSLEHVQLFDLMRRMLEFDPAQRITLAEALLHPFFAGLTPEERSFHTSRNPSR
T1 sequence (P49760 whole entry): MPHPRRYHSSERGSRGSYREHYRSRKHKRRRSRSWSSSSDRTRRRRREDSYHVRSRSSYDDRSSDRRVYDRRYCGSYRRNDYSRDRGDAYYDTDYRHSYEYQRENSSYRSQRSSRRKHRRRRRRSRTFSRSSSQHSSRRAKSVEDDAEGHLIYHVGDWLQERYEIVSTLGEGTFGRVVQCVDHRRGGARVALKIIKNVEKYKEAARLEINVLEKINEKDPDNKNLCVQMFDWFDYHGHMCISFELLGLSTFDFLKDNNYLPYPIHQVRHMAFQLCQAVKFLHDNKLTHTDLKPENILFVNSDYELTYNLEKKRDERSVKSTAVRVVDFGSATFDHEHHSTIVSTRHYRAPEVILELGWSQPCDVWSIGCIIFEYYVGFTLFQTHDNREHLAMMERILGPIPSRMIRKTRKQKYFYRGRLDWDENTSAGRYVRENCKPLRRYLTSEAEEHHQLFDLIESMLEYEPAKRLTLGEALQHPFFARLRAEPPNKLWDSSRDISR

Work on `CC(C)Nc1cncc(-c2ccc3cnc(NC(=O)c4cn(C5CCN(CCF)CC5)nn4)cc3c2)n1` [Compound 85] yielded an EC50 (CLK2) of 4 nM, an EC50 (BT-549) of 210 nM and an EC50 (CAMA1) of 399 nM. The EC50 (DU4475) was 420 nM, the EC50 (HCC1599) was 94 nM and the EC50 (MCF7) was 683 nM. The EC50 (MDA-MB-231-Luc) was greater than 10000 nM, the EC50 (T47D) was 635 nM and the EC50 (ZR-75-1) was 506 nM. For the same molecule, the EC50 (all 50 cell lines) was 880 nM, the EC50 [1, 8] was 0.077 µM and the EC50 [1, 9] was 0.198 µM. For the same molecule, the EC50 [1, 10] was 0.067 µM, the EC50 [1, 11] was 0.173 µM and the EC50 [1, 12] was 0.059 µM. For the same molecule, the EC50 [1, 13] was 0.136 µM, the EC50 [2, 14] was 0.207 µM and the EC50 [2, 15] was 0.067 µM. The EC50 [2, 16] was 0.082 µM, the EC50 [2, 17] was 0.491 µM and the EC50 [2, 18] was 0.252 µM. For the same molecule, the EC50 [2, 19] was 0.175 µM, the EC50 [2, 20] was 0.466 µM and the EC50 [2, 21] was 0.109 µM. It also gave an EC50 [2, 22] of 0.209 µM, an EC50 [2, 23] of 0.241 µM and an EC50 [2, 24] of 0.13 µM. The EC50 [2, 25] was 0.226 µM, the EC50 [2, 26] was 0.122 µM and the EC50 [3, 27] was 96 nM. For the same molecule, the EC50 [3, 28] was greater than 10000 nM, the EC50 [3, 29] was 350 nM and the EC50 [4, 30] was 0.452 µM. For the same molecule, the EC50 [4, 31] was 0.64 µM, the EC50 [4, 32] was 0.564 µM and the EC50 [4, 33] was 0.412 µM. For the same molecule, the EC50 [5, 34] was greater than 10 µM, the EC50 [5, 35] was 0.143 µM and the EC50 [5, 36] was 0.562 µM. The EC50 [5, 37] was 0.171 µM, the EC50 [6, 38] was 527 nM and the EC50 [6, 39] was 224 nM. The EC50 [6, 40] was 295 nM, the EC50 [6, 41] was 148 nM and the EC50 [6, 42] was 419 nM. It also gave an EC50 [6, 43] of 488 nM, an EC50 [6, 44] of 135 nM and an EC50 [7, 45] of 239 nM. It also gave an EC50 [7, 46] of 250 nM, an EC50 [7, 47] of 414 nM and an EC50 [7, 48] of 509 nM. The EC50 [7, 49] was 505 nM and the EC50 (CLK3) was 12 nM.

`CN1CC=C(c2cc(C(=O)Nc3cc4cc(-c5cncc(NC(C)(C)C)n5)cnc4cn3)ccn2)CC1` [Compound 86] gave an EC50 (CLK2) of 4.7 nM, an EC50 (BT-549) of 2890 nM and an EC50 (CAMA1) of 2130 nM. It also gave an EC50 (DU4475) of 2500 nM, an EC50 (HCC1599) greater than 10000 nM and an EC50 (MCF7) greater than 10000 nM. The EC50 (MDA-MB-231-Luc) was 3790 nM, the EC50 (T47D) was greater than 10000 nM and the EC50 (ZR-75-1) was 4180 nM. The EC50 (all 50 cell lines) was 2710 nM, the EC50 [1, 8] was 0.718 µM and the EC50 [1, 9] was 1.17 µM. It also gave an EC50 [1, 10] of 0.49 µM, an EC50 [1, 11] of 0.848 µM and an EC50 [1, 12] of 0.454 µM. The EC50 [1, 13] was 1.46 µM, the EC50 [2, 14] was 1.37 µM and the EC50 [2, 15] was 0.292 µM. For the same molecule, the EC50 [2, 16] was 0.663 µM, the EC50 [2, 17] was 1.11 µM and the EC50 [2, 18] was 2.85 µM. For the same molecule, the EC50 [2, 19] was 0.645 µM, the EC50 [2, 20] was 2.14 µM and the EC50 [2, 21] was 0.884 µM. It also gave an EC50 [2, 22] of 1.22 µM, an EC50 [2, 23] of 1.07 µM and an EC50 [2, 24] of 1.46 µM. It also gave an EC50 [2, 25] of 2.11 µM, an EC50 [2, 26] of 0.811 µM and an EC50 [3, 27] of 459 nM. It also gave an EC50 [3, 28] of 3860 nM, an EC50 [3, 29] greater than 10000 nM and an EC50 [4, 30] of 1.5 µM. For the same molecule, the EC50 [4, 31] was 6.86 µM, the EC50 [4, 32] was 2.72 µM and the EC50 [4, 33] was 0.895 µM. The EC50 [5, 34] was 1.25 µM, the EC50 [5, 35] was 1.23 µM and the EC50 [5, 36] was 6.93 µM. The EC50 [5, 37] was 1.2 µM, the EC50 [6, 38] was 1710 nM and the EC50 [6, 39] was 1890 nM. For the same molecule, the EC50 [6, 40] was 2630 nM, the EC50 [6, 41] was 1010 nM and the EC50 [6, 42] was 2890 nM. It also gave an EC50 [6, 43] of 5420 nM, an EC50 [6, 44] of 983 nM and an EC50 [7, 45] of 2690 nM. For the same molecule, the EC50 [7, 46] was 3350 nM, the EC50 [7, 47] was 1210 nM and the EC50 [7, 48] was 5330 nM. The EC50 [7, 49] was 2250 nM and the EC50 (CLK3) was 11.5 nM.
